Values of other authors in patent US8821921B2, “Vitamin D3 for the transdermal treatment of pain and inflammation” (Anzamed International Limited, priority 2009, dated 2014).

Tested on: diabetic neuropathic pain
Conditions: daily oral doses, patients with diabetic neuropathy

SMILES: C=C1CC[C@H](O)C/C1=C/C=C1\CCC[C@]2(C)[C@@H]([C@H](C)CCCC(C)C)CC[C@@H]12 [vitamin D3, cholecalciferol]
- diabetic neuropathic pain: significant reduction
